In patent publication US12552783B2, “Modulators of proteolysis and associated methods of use” (Arvinas Operations, Inc., priority 2018, dated 2026):

Molecular target: KRas (Homo sapiens, UniProt P01116, G12C)
Assay: KRas degradation in NCI-H2030 cells by Western blot, normalized to GAPDH (data of Table 14)
Type: cell-based
Set-up: host or cells: NCI-H2030
Settings: for Dmax: NCI-H2030
Method in brief: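 Cells serum-starved 24 h, then treated at 0.3, 1 and 3 μM in 0.1% DMSO, 24 h for VHL-based compounds and 72 h for others. Lysates (10 μg protein) immunoblotted; KRas normalized to GAPDH, degradation visually estimated below 25% or quantified versus DMSO lane, giving DC50 and DMax.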

Structure (SMILES) | Percent Degradation at Indicated Concentration (μM) (H2030, 0.3 μM) | Percent Degradation at Indicated Concentration (μM) (H2030, 1 μM) | Percent Degradation at Indicated Concentration (μM) (H2030, 3 μM) | Dmax | other results
C=CC(=O)N1CCN(c2nc(NCCC(=O)N(C)CCOc3cc(-c4scnc4C)ccc3CNC(=O)[C@@H]3C[C@@H](O)CN3C(=O)[C@H](c3cc(C)no3)C(C)C)nc3c(F)c(-c4cc(O)cc5ccccc45)c(Cl)cc23)CC1 [compound 338, (2S,4R)-N-(2-(2-(3-((4-(4-acryloylpiperazin-1-yl)-6-chloro-8-fluoro-7-(3-hydroxynaphthalen-1-yl)quinazolin-2-yl)amino)-N-methylpropanamido)ethoxy)-4-(4-methylthiazol-5-yl)benzyl)-4-hydroxy-1-((S)-3-methyl-2-(3-methylisoxazol-5-yl)butanoyl)pyrrolidine-2-carboxamide] | C (Percent Degradation: C ≤ 35) | C (Percent Degradation: C ≤ 35) | C (Percent Degradation: C ≤ 35) | ≤ 35% | –
C=CC(=O)N1CCN(c2nc(O[C@H](C)CN3CCC(OCCOCCOCCOCCOCCOCC(=O)N[C@H](C(=O)N4C[C@H](O)C[C@H]4C(=O)N[C@@H](C)c4ccc(-c5scnc5C)cc4)C(C)(C)C)CC3)nc3c2CCN(c2cc(O)cc4ccccc24)C3)CC1 [compound 410, (2S,4R)-1-((S)-20-((1-((R)-2-((4-(4-acryloylpiperazin-1-yl)-7-(3-hydroxynaphthalen-1-yl)-5,6,7,8-tetrahydropyrido[3,4-d]pyrimidin-2-yl)oxy)propyl)piperidin-4-yl)oxy)-2-(tert-butyl)-4-oxo-6,9,12,15,18-pentaoxa-3-azaicosanoyl)-4-hydroxy-N-((S)-1-(4-(4-methylthiazol-5-yl)phenyl)ethyl)pyrrolidine-2-carboxamide] | – | – | – | – | Percent Degradation at Indicated Concentration (μM) (H2030 cells, 0.3 μM): C (Percent Degradation: C ≤ 35); Percent Degradation at Indicated Concentration (μM) (H2030 cells, 1 μM): C (Percent Degradation: C ≤ 35); Percent Degradation at Indicated Concentration (μM) (H2030 cells, 3 μM): C (Percent Degradation: C ≤ 35)
C=CC(=O)N1CCN(c2nc(OCCCN(C)CCOCCOCCOCCOCC(=O)N[C@H](C(=O)N3C[C@H](O)C[C@H]3C(=O)N[C@@H](C)c3ccc(-c4scnc4C)cc3)C(C)(C)C)nc3c(F)c(-c4cc(O)cc5ccccc45)c(Cl)cc23)CC1 [compound 497, (2S,4R)-1-((2S)-21-((4-(4-acryloylpiperazin-1-yl)-6-chloro-8-fluoro-7-(3-hydroxynaphthalen-1-yl)quinazolin-2-yl)oxy)-2-(tert-butyl)-18-methyl-4-oxo-6,9,12,15-tetraoxa-3,18-diazahenicosanoyl)-4-hydroxy-N-((S)-1-(4-(4-methylthiazol-5-yl)phenyl)ethyl)pyrrolidine-2 carboxamide] | C (Percent Degradation: C ≤ 35) | C (Percent Degradation: C ≤ 35) | C (Percent Degradation: C ≤ 35) | ≤ 35% | –
C=CC(=O)N1CCN(c2nc(NCCC(=O)N(C)CCOCC(=O)N[C@H](C(=O)N3C[C@H](O)C[C@H]3C(=O)N[C@@H](C)c3ccc(-c4scnc4C)cc3)C(C)(C)C)nc3c(F)c(-c4c(O)cccc4F)c(Cl)cc23)CC1 (atropisomer, axis not shown) [compound 205, (2S,4R)-1-((S)-2-(2-(2-(3-(((S)-4-(4-acryloylpiperazin-1-yl)-6-chloro-8-fluoro-7-(2-fluoro-6-hydroxyphenyl)quinazolin-2-yl)amino)-N-methylpropanamido)ethoxy)acetamido)-3,3-dimethylbutanoyl)-4-hydroxy-N-((S)-1-(4-(4-methylthiazol-5-yl)phenyl)ethyl)pyrrolidine-2-carboxamide] | – | – | C (Percent Degradation: C ≤ 35) | – | –
CCC(=O)N1CCN(c2nc(NCCC(=O)N(C)CCOCCOCCOCCOc3ccc4c(c3)CN(C3CCC(=O)NC3=O)C4=O)nc3c(F)c(-c4cc(O)cc5ccccc45)c(Cl)cc23)CC1 (stereo not shown) [compound 53, 3-((6-chloro-8-fluoro-7-(3-hydroxynaphthalen-1-yl)-4-(4-propionylpiperazin-1-yl)quinazolin-2-yl)amino)-N-(2-(2-(2-(2-((2-(2,6-dioxopiperidin-3-yl)-1-oxoisoindolin-5-yl)oxy)ethoxy)ethoxy)ethoxy)ethyl)-N-methylpropanamide] | – | – | – | – | Percent Degradation at Indicated Concentration (μM): 0.3 (H2030 cells, 0.3 μM): C (C ≤ 35); Percent Degradation at Indicated Concentration (μM): 1 (H2030 cells, 1 μM): C (C ≤ 35); Percent Degradation at Indicated Concentration (μM): 3 (H2030 cells, 3 μM): C (C ≤ 35); Dmax (H2030 cells): ≤ 35%
CCC(=O)N1CCN(c2nc(NCCC(=O)N(C)CCOCCOCCOCCOCCNc3cccc4c3C(=O)N(C3CCC(=O)NC3=O)C4=O)nc3c(F)c(-c4cc(O)cc5ccccc45)c(Cl)cc23)CC1 (stereo not shown) [compound 45, 3-((6-chloro-8-fluoro-7-(3-hydroxynaphthalen-1-yl)-4-(4-propionylpiperazin-1-yl)quinazolin-2-yl)amino)-N-(14-((2-(2,6-dioxopiperidin-3-yl)-1,3-dioxoisoindolin-4-yl)amino)-3,6,9,12-tetraoxatetradecyl)-N-methylpropanamide] | – | – | – | – | Percent Degradation at Indicated Concentration (μM): 0.3 (H2030 cells, 0.3 μM): C (C ≤ 35); Percent Degradation at Indicated Concentration (μM): 1 (H2030 cells, 1 μM): C (C ≤ 35); Percent Degradation at Indicated Concentration (μM): 3 (H2030 cells, 3 μM): C (C ≤ 35); Dmax (H2030 cells): ≤ 35%
C=CC(=O)N1CCN(c2nc(NCCC(=O)N(C)CCOCCOc3cc(-c4scnc4C)ccc3CNC(=O)[C@@H]3C[C@@H](O)CN3C(=O)[C@@H](c3cc(C)no3)C(C)C)nc3c(F)c(-c4c(O)cccc4F)c(Cl)cc23)CC1 (atropisomer, axis not shown) [compound 128, (25,4R)-N-(2-(2-(2-(3-(((S)-4-(4-acryloylpiperazin-1-yl)-6-chloro-8-fluoro-7-(2-fluoro-6-hydroxyphenyl)quinazolin-2-yl)amino)-N-methylpropanamido)ethoxy)ethoxy)-4-(4-methylthiazol-5-yl)benzyl)-4-hydroxy-1-((R)-3-methyl-2-(3-methylisoxazol-5-yl)butanoyl)pyrrolidine-2-carboxamide] | C (Percent Degradation: C ≤ 35) | C (Percent Degradation: C ≤ 35) | C (Percent Degradation: C ≤ 35) | ≤ 35% | –
C=CC(=O)N1CCN(c2nc(NCCC(=O)N(C)CCOCCOCCOCCNC(=O)c3ccc(NC(=O)[C@@H]4N[C@@H](CC(C)(C)C)[C@](C#N)(c5ccc(Cl)cc5F)[C@H]4c4cccc(Cl)c4F)c(OC)c3)nc3c(F)c(-c4cc(O)cc5ccccc45)c(Cl)cc23)CC1 [compound 303, (2R,3S,4R,5S)-N-(4-((15-((4-(4-acryloylpiperazin-1-yl)-6-chloro-8-fluoro-7-(3-hydroxynaphthalen-1-yl)quinazolin-2-yl)amino)-12-methyl-13-oxo-3,6,9-trioxa-12-azapentadecyl)carbamoyl)-2-methoxyphenyl)-3-(3-chloro-2-fluorophenyl)-4-(4-chloro-2-fluorophenyl)-4-cyano-5-neopentylpyrrolidine-2-carboxamide] | C (Percent Degradation: C ≤ 35) | C (Percent Degradation: C ≤ 35) | C (Percent Degradation: C ≤ 35) | ≤ 35% | –
C=CC(=O)N1CCN(c2nc(NCCC(=O)N(C)CCOCCOCCOCCOc3ccc(-c4csc([C@@H]5CCCN5C(=O)[C@@H](NC(=O)[C@H](C)NC)C5CCCCC5)n4)c4ccccc34)nc3c(F)c(-c4c(O)cccc4F)c(Cl)cc23)CC1 (atropisomer, axis not shown) [compound 278, 3-((4-(4-acryloylpiperazin-1-yl)-6-chloro-8-fluoro-7-((S)-2-fluoro-6-hydroxyphenyl)quinazolin-2-yl)amino)-N-(2-(2-(2-(2-((4-(2-((S)-1-((S)-2-cyclohexyl-2-((S)-2-(methylamino)propan-amido)acetyl)pyrrolidin-2-yl)thiazol-4-yl)naphthalen-1-yl)oxy)ethoxy)ethoxy)eth-oxy)ethyl)-N-methylpropanamide] | C (Percent Degradation: C ≤ 35) | C (Percent Degradation: C ≤ 35) | C (Percent Degradation: C ≤ 35) | ≤ 35% | –
C=CC(=O)N1CCN(c2nc(NCCC(=O)N(C)CCOCCOCCOCCOCC(=O)N[C@H](C(=O)N3C[C@H](O)C[C@H]3C(=O)N[C@@H](C)c3ccc(-c4scnc4C)cc3)C(C)(C)C)nc3c(F)c(-c4cc(O)cc5ccccc45)c(Cl)cc23)CC1 [compound 194, (2S,4R)-1-((2S)-21-((4-(4-acryloylpiperazin-1-yl)-6-chloro-8-fluoro-7-(3-hydroxynaphthalen-1-yl)quinazolin-2-yl)amino)-2-(tert-butyl)-18-methyl-4,19-dioxo-6,9,12,15-tetraoxa-3,18-diazahenicosanoyl)-4-hydroxy-N-((S)-1-(4-(4-methylthiazol-5-yl)phenyl)ethyl)pyrrolidine-2-carboxamide] | – | – | – | – | Percent Degradation at Indicated Concentration (μM): 0.3 (H2030 cells, 0.3 μM): C (C ≤ 35); Percent Degradation at Indicated Concentration (μM): 1 (H2030 cells, 1 μM): C (C ≤ 35); Percent Degradation at Indicated Concentration (μM): 3 (H2030 cells, 3 μM): C (C ≤ 35); Dmax (H2030 cells): ≤ 35%
C=CC(=O)N1CCN(c2nc(NCCCN(C)CCOCCOCCOCCOCC(=O)N[C@H](C(=O)N3C[C@H](O)C[C@H]3C(=O)N[C@@H](C)c3ccc(-c4scnc4C)cc3)C(C)(C)C)nc3c(F)c(-c4cc(O)cc5ccccc45)c(Cl)cc23)CC1 [compound 396, (2S,4R)-1-((2S)-21-((4-(4-acryloylpiperazin-1-yl)-6-chloro-8-fluoro-7-(3-hydroxynaphthalen-1-yl)quinazolin-2-yl)amino)-2-(tert-butyl)-18-methyl-4-oxo-6,9,12,15-tetraoxa-3,18-diazahenicosanoyl)-4-hydroxy-N-((S)-1-(4-(4-methylthiazol-5-yl)phenyl)ethyl)pyrrolidine-2-carboxamide] | C (Percent Degradation: C ≤ 35) | C (Percent Degradation: C ≤ 35) | C (Percent Degradation: C ≤ 35) | ≤ 35% | –
